Results taken from ChEMBL document CHEMBL1268944, “The antiplasmodial activity of norcantharidin analogs” (Bioorg Med Chem Lett, 2010).

Experiments:
Plasmodium falciparum [1] = assay: Antiplasmodial activity against chloroquine-sensitive Plasmodium falciparum D6 assessed as inhibition of parasite LDH activity after 72 hrs by malstat reagent method; type: functional, organism-based; settings: D6, 72 h
Plasmodium falciparum [2] = assay: Antiplasmodial activity against chloroquine-resistant Plasmodium falciparum W2 assessed as inhibition of parasite LDH activity […] after 72 hrs by malstat reagent method; type: functional, organism-based; settings: W2, 72 h
[3] = Inhibition of human PP1 expressed in Escherichia coli BL21
[4] = Inhibition of human PP2A expressed in Escherichia coli BL21
Plasmodium falciparum [5] = assay: Ratio of Norcantharidin IC50 to compound IC50 for chloroquine-sensitive Plasmodium falciparum D6; type: functional
Plasmodium falciparum [6] = assay: Ratio of Norcantharidin IC50 to compound IC50 for chloroquine-resistant Plasmodium falciparum W2; type: functional
[7] = Inhibition of human PP1
[8] = Inhibition of human PP2A

Structure (SMILES) | IC50 (Plasmodium falciparum [1]) | IC50 (Plasmodium falciparum [2]) | IC50 [3] | IC50 [4] | Ratio IC50 (Plasmodium falciparum [5]) | Ratio IC50 (Plasmodium falciparum [6]) | IC50 [7] | IC50 [8]
C[C@@]12C(=O)OC(=O)[C@]1(C)[C@H]1CC[C@@H]2O1 [CANTHARIDIN] | 9 µM | 9 µM | 1.8 µM | 0.2 µM |  |  |  | 
O=C1OC(=O)C2C3CCC(O3)C12 (centres undefined) [DEMETHYL-CANTHARIDIN] | 60 µM | 50 µM | 2 µM | 0.4 µM |  |  |  | 
C=CCNC(=O)C1C(C(=O)O)[C@@H]2CC[C@H]1O2 (some centres undefined) | 3 µM | 3 µM |  |  | 20 | 20 | 40 µM | 10 µM
